Measurements as given in patent publication US11053204B2, “Pyrimidinyloxy benzene derivatives as herbicides” (FMC Corporation, priority 2015, dated 2021).

Experiments:
Format in all cases: in vivo
[1] = system: johnsongrass (Sorghum halepense); assay: Test C preemergence, plant response rating
[2] = system: oat, wild (wild oat Avena fatua); assay: Test C preemergence, plant response rating
[3] = system: wild poinsettia (Euphorbia heterophylla); assay: Test C preemergence, plant response rating
[4] = system: galium (catchweed bedstraw, Galium aparine); assay: Test C preemergence, plant response rating
[5] = system: field violet (Viola arvensis); assay: Test C postemergence, plant response rating; conditions: for Field Violet plant response rating: scale 0 to 100 (0 no effect, 100 complete control)
Summary of the method: (§1)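 After sowing in loam–sand blend or silt loam, pots were sprayed preemergence; separately grown 1- to 4-leaf plants were sprayed postemergence. Following 13 to 15 d under greenhouse conditions, injury was rated visually on a 0 to 100 scale.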

[6] = system: windgrass (Apera spica-venti); assay: Test C postemergence, plant response rating
Summary of the method: as §1

[7] = system: nightshade (eastern black nightshade, Solanum ptycanthum); assay: Test C postemergence, plant response rating; conditions: for Nightshade plant response rating: scale 0 to 100 (0 no effect, 100 complete control)
Summary of the method: as §1

[8] = system: geranium, cutleaf (cutleaf geranium, Geranium dissectum); assay: Test C postemergence, plant response rating; conditions: for Geranium, Cutleaf plant response rating: scale 0 to 100 (0 no effect, 100 complete control)
Summary of the method: as §1

[9] = system: field poppy (Papaver rhoeas); assay: Test C postemergence, plant response rating; conditions: for Field Poppy plant response rating: scale 0 to 100 (0 no effect, 100 complete control)
Summary of the method: as §1

[10] = system: surinam grass (Brachiaria decumbens); assay: Test C postemergence, plant response rating
Summary of the method: as §1

[11] = system: speedwell (bird's-eye speedwell, Veronica persica); assay: Test C postemergence, plant response rating; conditions: for Speedwell plant response rating: scale 0 to 100 (0 no effect, 100 complete control)
Summary of the method: as §1

[12] = system: johnsongrass (Sorghum halepense); assay: Test C postemergence, plant response rating; conditions: for Johnsongrass plant response rating: scale 0 to 100 (0 no effect, 100 complete control)
Summary of the method: as §1

[13] = system: pigweed, palmer (palmer pigweed, Amaranthus palmeri); assay: Test C postemergence, plant response rating; conditions: for Pigweed, Palmer plant response rating: scale 0 to 100 (0 no effect, 100 complete control)
Summary of the method: as §1

[14] = system: wild poinsettia (Euphorbia heterophylla); assay: Test C postemergence, plant response rating; conditions: for Poinsettia, Wild plant response rating: scale 0 to 100 (0 no effect, 100 complete control)
Summary of the method: as §1

[15] = system: buckwheat, wild (wild buckwheat, Polygonum convolvulus); assay: Test C postemergence, plant response rating; conditions: for Buckwheat, Wild plant response rating: scale 0 to 100 (0 no effect, 100 complete control)
Summary of the method: as §1

[16] = system: Canada thistle (Cirsium arvense); assay: Test C postemergence, plant response rating; conditions: for Canada Thistle plant response rating: scale 0 to 100 (0 no effect, 100 complete control)
Summary of the method: as §1

[17] = system: windgrass (Apera spica-venti); assay: Test C preemergence, plant response rating
[18] = 125 g ai/ha, scale 0 to 100 (0 no effect, 100 complete control)

O=C(CCCC(F)(F)F)c1c(Oc2ncc(Cl)cn2)cccc1C(F)(F)F [Compound 125]
Plant response rating, Johnsongrass ([1]; 31 g ai/ha, scale 0 to 100): 5 | Plant response rating, Johnsongrass ([1]; 62 g ai/ha, scale 0 to 100): 60 | Plant response rating, Johnsongrass ([1]; 125 g ai/ha, scale of 0 to 100): 75 | Plant response rating, Oat, Wild ([2]; 31 g ai/ha, scale 0 to 100): 0 | Plant response rating, Oat, Wild ([2]; 62 g ai/ha, scale 0 to 100): 10 | Plant response rating, Oat, Wild ([2]; 125 g ai/ha, scale of 0 to 100): 55 | Plant response rating, Poinsettia, Wild ([3]; 31 g ai/ha, scale 0 to 100): 0 | Plant response rating, Poinsettia, Wild ([3]; 62 g ai/ha, scale 0 to 100): 25 | Plant response rating, Poinsettia, Wild ([3]; 125 g ai/ha, scale of 0 to 100): 30 | Plant response rating, Galium ([4]; 31 g ai/ha, scale 0 to 100): 5 | Plant response rating, Galium ([4]; 62 g ai/ha, scale 0 to 100): 30 | Plant response rating, Galium ([4]; 125 g ai/ha, scale of 0 to 100): 80 | Plant response rating, Field Violet ([5]; 16 g ai/ha, scale of 0 to 100): 90 | Plant response rating, Field Violet ([5]; 31 g ai/ha, scale 0 to 100): 98 | Field Violet plant response rating ([5]; 62 g ai/ha): 98 | Field Violet plant response rating ([5]; 125 g ai/ha): 98 | Plant response rating, Windgrass ([6]; 16 g ai/ha, scale of 0 to 100): 10 | Plant response rating, Windgrass ([6]; 31 g ai/ha, scale 0 to 100): 15 | Windgrass plant response rating [6, 18]: 35 | Plant response rating, Nightshade ([7]; 16 g ai/ha, scale of 0 to 100): 50 | Plant response rating, Nightshade ([7]; 31 g ai/ha, scale 0 to 100): 75 | Nightshade plant response rating ([7]; 62 g ai/ha): 85 | Nightshade plant response rating ([7]; 125 g ai/ha): 90 | Plant response rating, Geranium, Cutleaf ([8]; 16 g ai/ha, scale of 0 to 100): 25 | Plant response rating, Geranium, Cutleaf ([8]; 31 g ai/ha, scale 0 to 100): 30 | Geranium, Cutleaf plant response rating ([8]; 62 g ai/ha): 55 | Geranium, Cutleaf plant response rating ([8]; 125 g ai/ha): 55 | Plant response rating, Field Poppy ([9]; 16 g ai/ha, scale of 0 to 100): 90 | Plant response rating, Field Poppy ([9]; 31 g ai/ha, scale 0 to 100): 95 | Field Poppy plant response rating ([9]; 62 g ai/ha): 100 | Field Poppy plant response rating ([9]; 125 g ai/ha): 100 | Plant response rating, Surinam Grass ([10]; 16 g ai/ha, scale of 0 to 100): 5 | Plant response rating, Surinam Grass ([10]; 31 g ai/ha, scale 0 to 100): 10 | Surinam Grass plant response rating [10, 18]: 20 | Plant response rating, Speedwell ([11]; 16 g ai/ha, scale of 0 to 100): 55 | Plant response rating, Speedwell ([11]; 31 g ai/ha, scale 0 to 100): 70 | Speedwell plant response rating ([11]; 62 g ai/ha): 98 | Speedwell plant response rating ([11]; 125 g ai/ha): 98 | Plant response rating, Johnsongrass ([12]; 16 g ai/ha, scale of 0 to 100): 5 | Plant response rating, Johnsongrass ([12]; 31 g ai/ha, scale 0 to 100): 5 | Johnsongrass plant response rating ([12]; 62 g ai/ha): 10 | Johnsongrass plant response rating ([12]; 125 g ai/ha): 25 | Plant response rating, Pigweed, Palmer ([13]; 16 g ai/ha, scale of 0 to 100): 40 | Plant response rating, Pigweed, Palmer ([13]; 31 g ai/ha, scale 0 to 100): 85 | Pigweed, Palmer plant response rating ([13]; 62 g ai/ha): 80 | Pigweed, Palmer plant response rating ([13]; 125 g ai/ha): 85 | Plant response rating, Poinsettia, Wild ([14]; 16 g ai/ha, scale of 0 to 100): 65 | Plant response rating, Poinsettia, Wild ([14]; 31 g ai/ha, scale 0 to 100): 65 | Poinsettia, Wild plant response rating ([14]; 62 g ai/ha): 75 | Poinsettia, Wild plant response rating ([14]; 125 g ai/ha): 85 | Plant response rating, Buckwheat, Wild ([15]; 16 g ai/ha, scale of 0 to 100): 70 | Plant response rating, Buckwheat, Wild ([15]; 31 g ai/ha, scale 0 to 100): 65 | Buckwheat, Wild plant response rating ([15]; 62 g ai/ha): 75 | Buckwheat, Wild plant response rating ([15]; 125 g ai/ha): 98 | Plant response rating, Canada Thistle ([16]; 16 g ai/ha, scale of 0 to 100): 80 | Plant response rating, Canada Thistle ([16]; 31 g ai/ha, scale 0 to 100): 85 | Canada Thistle plant response rating ([16]; 62 g ai/ha): 90 | Canada Thistle plant response rating ([16]; 125 g ai/ha): 90 | Plant response rating, Windgrass ([17]; 31 g ai/ha, scale 0 to 100): 85 | Plant response rating, Windgrass ([17]; 62 g ai/ha, scale 0 to 100): 90 | Plant response rating, Windgrass ([17]; 125 g ai/ha, scale of 0 to 100): 100
